Experimental findings from patent US9974305B2, “Fungicidal or bactericidal composition, and method for controlling diseases” (NISSAN CHEMICAL INDUSTRIES, LTD., priority 2014, dated 2018) are described below.

Common to all, as to assay type: in vivo
The subject of assay [1] is wheat glume blotch (Leptosphaeria nodorum). Put plainly: Efficacy test on wheat glume blotch, spray treatment and prevention test (Test Example 8). As to conditions: spray, lesion area ratio; for pest or weed control at 3 ppm / pest or weed control at 10 ppm: Parastagonospora nodorum, read-out: Preventive value. Put shortly: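 Wheat seedlings (Haruyutaka, 1-leaf stage) sprayed with diluted two-component formulation; one day later spray-inoculated with L. nodorum spores (1×100,000 cfu/ml), 48 h at 20° C, >95% RH, then 7 days greenhouse. Lesion area ratio gives preventive value versus untreated; synergy assessed by Colby method.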

The subject of assay [2] is cucumber downy mildew (Pseudoperenospora cubensis). The assay can be described thus: Efficacy test on cucumber downy mildew, spray treatment and prevention test (Test Example 7). Conditions: single compound 250 ppm; lesion area ratio. As to the method: An agent comprising the following compound listed in Table 2 (active ingredient A) and the compound listed in Table 6 (C40: active ingredient B) as active ingredients, was prepared in accordance with the above Formulation Example. This agent was diluted with water to a predetermined concentration to obtain a test solution. Then, to seedlings of cucumber (variety: Sagami-hanjiro) at 1.5-leaf stage grown in a pot with a diameter of 7 cm, the test solution was applied by a spray gun in an amount of 10 ml per pot, for treatment. One day after the treatment, a spore suspension (2×100,000 cfu/ml) of cucumber downy mildew (Pseudoperenospora cubensis), was spray-inoculated, and the pot was placed in a moist chamber set in temperature of 20° C. and humidity more than 95% RH for 24 hours. After placing the pot in a glass greenhouse for 6 days, the ratio of the formed lesion area occupying the inoculated leaves was measured, and the preventive value was calculated in accordance with the following formula. Preventive value=[1−(treated plot lesion area ratio/untreated plot lesion area ratio)]×100
Further, from the preventive value for each agent concentration, synergy was calculated by using the Colby method (Colby S. R. 1976, Weeds 15, 20-22).

The subject of assay [3] is cucumber gray mold fungus (Botrytis cinerea). Put plainly: Preventive test against gray mold on cucumber cotyledon leaves, spray treatment, preventive value and Colby expected value (Test Examples 1-4). Conditions: single compound; for pest or weed control at 3 ppm / pest or weed control at 1 ppm: Botrytis cinerea, 72 h; for pest or weed control at 3 ppm: read-out: Preventive value. Put shortly:
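Cucumber (Sagami-hanjiro) cotyledons sprayed with water-diluted formulations of ingredient A, B or mixtures, air-dried, detached, and drop-inoculated with Botrytis cinerea conidia mixed 1:1 with PDA. After 3 days at 20 °C, lesion area gave preventive value versus untreated; Colby expected value E=X+Y−XY/100 computed for mixtures.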

Assay [4] deals with wheat powdery mildew (Blumeria graminis). The assay can be described thus: Efficacy test on wheat powdery mildew, seed treatment (Test Example 10). Conditions: wheat (Norin 61). As to the method: An agent comprising the following compound listed in Table 2 (active ingredient A) and the compound listed in Table 11 (H35: active ingredient B) as active ingredients, was prepared in accordance with the above Formulation Example. This agent was diluted with water to a predetermined concentration to obtain a test solution. A predetermined amount of test solution was put in a glass bottle of 5 ml, and 0.5 g (approximately 15 grains) of wheat seeds (variety: Norin 61) were added, stirred and air-dried. In each pot with a diameter of 7 cm and having soil put therein, 3 grains were seeded and grown for 14 days. To the wheat seedlings grown to the 1-leaf stage, a spore suspension (100,000 cfu/ml) of wheat powdery mildew (Blumeria graminis) was spray-inoculated. After placing the pot in a glass greenhouse for 10 days, the ratio of the formed lesion area occupying the inoculated leaves was measured, and the preventive value was calculated in accordance with the following formula. Preventive value=[1−(treated plot lesion area ratio/untreated plot lesion area ratio)]×100
(§1) Further, from the preventive value at each agent concentration, synergy was calculated by using the Colby method (Colby S. R. 1976, Weeds 15, 20-22).

Assay [5] deals with cucumber powdery mildew (Sphaerotheca cucurbitae). The assay can be described thus: Efficacy test on cucumber powdery mildew, irrigation treatment (Test Example 11). As to conditions: concentration 500 ppm, cucumber (Sagami-hanjiro). How it is done:
An agent comprising the following compound listed in Table 2 (active ingredient A) and the compound listed in Table 6 (C18: active ingredient B), was prepared in accordance with the above Formulation Example. This agent was diluted with water to a predetermined concentration to obtain a test solution. 5 ml of the test solution was irrigated by a pipette to the close-to-ground part of cucumber seedlings at the 1 leaf stage (variety: Sagami-hanjiro), grown in a styrol cup with a diameter of 10 cm, and next day, the seedlings were transplanted to the to 4 cun pots. Then, after cultivation for 7 days in a glass greenhouse, to the first true leaf of the cucumber, a spore suspension (100,000 cfu/ml) of cucumber powdery mildew (Sphaerotheca cucurbitae) was inoculated by spraying. After 10 days in a glass greenhouse, the ratio of the formed lesion area occupying the inoculated leaves was measured, and the preventive value was calculated in accordance with the following formula. Preventive value=[1−(treated plot lesion area ratio/untreated plot lesion area ratio)]×100
as §1

Where [6] appears, read: processing amount 5 mg/1 g seed.
[7] abbreviates: processing amount 10 mg/1 g seed.

Read-outs that look alike come from different tables or passages of the source.

On to `CC(C)O/N=C(/CNC(=O)c1ccccc1C(F)(F)F)c1ncc(Cl)cc1Cl` [Compound No. 4], for which the Preventive value stood at 40 in assay [1] (single compound 3 ppm); 65 in assay [1] (single compound 10 ppm); 0 in assay [2]; 75 in assay [3] (Test Example 1, 3 ppm spray); 70 in assay [3] (Test Example 3, 3 ppm spray); 60 in assay [3] (Test Example 4, 3 ppm spray). Besides, the Preventive value in assay [4] (setting [6]) stood at 97; in assay [4] (setting [7]) it was 99; in assay [5], 60.

As for `COc1c(Cl)cnc(C(CNC(=O)c2ccccc2C(F)(F)F)=NOC(C)C)c1Cl` [Compound No. 9], the Preventive value in assay [1] (single compound 3 ppm) turned out to be 60; in assay [1] (single compound 10 ppm), 75; in assay [2], 0; in assay [3] (Test Example 1, 1 ppm spray, cucumber cotyledon, 3 days at 20° C.), 75; in assay [3] (Test Example 3, 1 ppm spray) it was 70; in assay [3] (Test Example 4, 1 ppm spray), 72. In addition, the figures for the Preventive value in assay [4] (setting [6]), in assay [4] (setting [7]) and in assay [5] were 100, 100 and 95, respectively.

Consider `CC#Cc1cnc(/C(CNC(=O)c2cn(C)nc2C(F)F)=N\OC(C)C)c(Cl)c1` [Compound No. 20, (Z)—N-[2-[3-chloro-5-(1-propynyl)pyridin-2-yl]-2-(isopropoxyimino)ethyl]-3-difluoromethyl-1-methyl-1H-pyrazole-4-carboxamide], for which the pest or weed control at 3 ppm in assay [1] (single compound 3 ppm) amounted to 80%; in assay [3] (Test Example 1, 3 ppm spray) it was 63%; in assay [3] (Test Example 3, 3 ppm spray), 65%; in assay [3] (Test Example 4, 3 ppm spray), 65%. Besides, the pest or weed control at 10 ppm in assay [1] (single compound 10 ppm) came out at 85%. Also, the Preventive value worked out at 5 in assay [2], 100 in assay [4] (setting [6]), 100 in assay [4] (setting [7]) and 100 in assay [5].

With `CC(C)O/N=C(/CNC(=O)c1cn(C)nc1C(F)F)c1ncc(C#CC2CC2)cc1Cl` [Compound No. 25, (Z)—N-[2-[3-chloro-5-(cyclopropylethynyl)pyridin-2-yl]-2-(isopropoxyimino)ethyl]-3-difluoromethyl-1-methyl-1H-pyrazole-4-carboxamide], the pest or weed control at 3 ppm in assay [1] (single compound 3 ppm) is 75%. For the same compound, the pest or weed control at 10 ppm in assay [1] (single compound 10 ppm) amounted to 85%. The Preventive value in assay [2] was found to be 5; in assay [4] (setting [6]), 100; in assay [4] (setting [7]) it was 100; in assay [5], 100. In addition, the pest or weed control at 1 ppm in assay [3] (Test Example 2, 1 ppm spray) came to 63%; in assay [3] (Test Example 3, 1 ppm spray), 75%; in assay [3] (Test Example 4, 1 ppm spray), 75%.

For the compound `CC(C)ON=C(CNC(=O)c1ccccc1C(F)(F)F)c1ncc(C(F)(F)F)cc1Cl` [compound 14], the Preventive value came out at 75 in assay [1] (single compound 3 ppm); 80 in assay [1] (single compound 10 ppm); 0 in assay [2]; 75 in assay [3] (Test Example 1, 3 ppm spray); 75 in assay [3] (Test Example 3, 3 ppm spray); 65 in assay [3] (Test Example 4, 3 ppm spray). Besides, the Preventive value in assay [4] (setting [6]) was determined as 97; in assay [4] (setting [7]), 100; in assay [5], 22.5.

Turning to `CON=C(CNC(=O)c1cn(C)nc1C(F)F)c1ncc(C#CC(C)(C)C)cc1Cl` [compound 28], the Preventive value came out at 60 in assay [1] (single compound 3 ppm); 85 in assay [1] (single compound 10 ppm); 5 in assay [2]; 75 in assay [3] (Test Example 1, 3 ppm spray); 77 in assay [3] (Test Example 3, 3 ppm spray); 75 in assay [3] (Test Example 4, 3 ppm spray). In addition, the Preventive value came to 100 in assay [4] (setting [6]), 100 in assay [4] (setting [7]) and 75 in assay [5].
